Experimental data: the METLIN SMRT retention time set (Domingo-Almenara et al. 2019)

Test: gradient 5% acetonitrile 3 min, to 50% in 2 min, to 85% in 15 min, held 3 min, 100 µL/min
Settings: column: Zorbax Extend-C18 2.1 x 50 mm; eluents: water / acetonitrile, 0.1% formic acid
How it was run: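 In both positive and negative ionization mode, a quadrupole time-of-flight mass spectrometer coupled to HPLC analyzed pure standards run in mixtures of ~100 molecules. The Zorbax Extend-C18 column (2.1 × 50 mm, 1.8 μm) was operated at 100 μL/min with water and acetonitrile, each containing 0.1% formic acid. The dead volume was 40 μL and the dwell volume 900 μL. Retention time came from adduct peaks that were computationally picked and individually inspected by hand.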

| Compound | RP-LC retention time [s] |
| --- | --- |
| CCn1cnc(S(=O)(=O)N2CCC(C(=O)NCC(C)c3ccccc3)CC2)c1 (stereo unspecified) | 732 |
| O=C1CCCc2cc(S(=O)(=O)N3CCC(C(=O)NC4CCCCCCC4)CC3)ccc2N1 | 814 |
| COc1ccc(C2OC(c3cc(Cl)ccc3OC(C)=O)=NN2C(C)=O)cc1 (stereo unspecified) | 956 |
| O=C(NC1CC1)[C@@H]1C[C@H](Oc2ccccc2)CN1C(=O)C1CCC1 | 735 |
| CC(=O)c1ccc(N2CCN(C(=O)CN3C(=O)C4C5C=CC(C5)C4C3=O)CC2)cc1 (stereo unspecified) | 644 |
| Cc1cccc(NC(=O)C(=O)NCCN2CCN(c3ccc(F)cc3)CC2)c1C | 584 |
| COc1cc(OC)cc(C(=O)N2CCc3cn(C)c4cccc(c34)C2)c1 | 952 |
| COC(=O)c1c(NC(=O)C2COc3ccccc3O2)sc2c1CCN(C(=O)OC)C2 (stereo unspecified) | 963 |
| Cc1nn(-c2nc(-c3ccc(F)cc3)cs2)c(C)c1CC(=O)Nc1ccc(Br)cc1 | 1240 |
| CC(C)c1ccc(N2C(=O)C3N=NN(Cc4nc(-c5cccc(C(F)(F)F)c5)no4)C3C2=O)cc1 (stereo unspecified) | 1260 |
| CCc1cc(=O)n(CC(=O)Nc2cc(OC)ccc2OC)c(N2CCOCC2)n1 | 967 |
| CCOc1ccc(/C=C/c2nc3ccccc3n(C)c2=O)cc1 | 933 |
| CCn1cc(C(=O)Nc2ccc(F)cc2)c(S(=O)(=O)N2CCSCC2)n1 | 976 |
| C#CCSc1nc(=O)n2ccc(C)cc2n1 | 645 |
| COCCN(CC1(C)CCOCC1)C(=O)NCc1ccc(F)cc1 | 752 |
| CC(=O)N1CCc2cc(N3CC(C(=O)Nc4ccc(F)cc4)CC3=O)ccc21 (stereo unspecified) | 699 |
| COc1ccc(CNC(=O)Cc2cn(C)c3ncccc23)cc1OC | 616 |
| CCOC(=O)c1nc(Nc2ccc(Cl)cc2)c2ccccc2n1 | 957 |
| O=C(NC1CCCCC1)N1CCN(c2ccc3nnc(C4CC4)n3n2)CC1 | 645 |
| CCOc1ccc(-c2noc(Cn3nc(-c4ccc5c(c4)OCO5)ccc3=O)n2)cc1 | 1130 |
| CCN1CCn2cc(S(=O)(=O)Nc3ccc(C)cc3)cc2C1=O | 723 |
| CN(C)c1ccc2c(c1)CN(C(=O)c1cnn(C)c1)CCO2 | 560 |
| CCCN1C(=O)COc2ccc(-c3noc(-c4ccc(C#N)cc4)n3)cc21 | 1130 |
| CN1C(=O)C(C)(C)c2cc(S(=O)(=O)N3CCN(c4ccccn4)CC3)ccc21 | 633 |
| CCc1ccc2c(c1)c(=O)c(C(=O)c1ccccc1)cn2CC(=O)Nc1cccc(Cl)c1 | 892 |
| Cc1ccccc1NC(=O)Cn1nc2cc(-c3ccccn3)nc(C)n2c1=O | 746 |
